Assay results from patent publication US6610672B2, “Compositions including reduced malto-oligosaccharide preserving agents, and methods for preserving a material” (Grain Processing Corporation, priority 1999, dated 2003).
One block for each molecule: values may come before it.

How the values were obtained:
[1] = Ultraviolet absorption (450 nm) over time of buffered lysine solutions with or without malto-oligosaccharide, warmed to 75° C.; assay type: physicochemical
Protocol: A pH 6 buffered lysine solution was prepared by dissolving L-lysine (0.5 g) in phosphate buffer and adjusting the pH with hydrochloric acid. […] An aqueous solution of a reduced malto-oligosaccharide was prepared by dissolving a reduced malto-oligosaccharide mixture in water to produce a solution having a final solids content of 50% by weight. The buffered lysine solution (2 mL) was dissolved in the aqueous reduced malto-oligosaccharide solution (hydrogenated MALTRIN® M180) (3 mL) to produce a solution.

[2] = test system: Fleischmann's baker's yeast; assay: Yeast viability before and after freeze drying (cell counting after plating on YM agar); assay type: cell-based; settings: yeast viability of freeze dried sample divided by that of control sample
Protocol: Yeast viability was determined by cell counting after plating on yeast extract, malt extract (YM) agar in accordance with the method described in FDA Bacteriological Analytical Manual, 6th Ed., Ch. 4, pp. 401-402 (1984). Yeast viability is expressed as the number of cells per gram of dry solids (gm.ds). The percent yeast survival was determined by dividing the yeast viability of the freeze dried sample by the yeast viability of the control sample.
For comparison, a mixture of yeast cells and a malto-oligosaccharide was freeze dried, as follows. A 20% aqueous solution of MALTRIN® M180 (M180) was prepared by dissolving 85.5 g (6.4% moisture) of M180 in […] of deionized water. A suspension of yeast cells was prepared by dissolving 5.78 g of Fleischmann's baker's yeast in 94.3 g of sterile phosphate buffer. The yeast suspension was stirred for 30 minutes to obtain a relatively homogenous yeast mixture. A 10.0 ml aliquot of the yeast suspension was pipetted into the 20% aqueous M180 solution. A control sample was removed to determine yeast viability by plating on YM agar (sample 9A). […] After freeze drying, sample 9B was removed from the pans and analyzed for yeast viability. […]
A mixture of yeast cells and a reduced malto-oligosaccharide was freeze dried, as follows. […] After freeze drying, samples 9D-1 and 9D-2 were removed from the pans and analyzed for yeast viability. […]

[3] = test system: Enzeco® Fungal Lactase Concentrate; assay: Lactase enzyme activity before and after freeze drying (glucose released from a buffered lactose solution); assay type: biochemical
Protocol: The enzyme activity was determined in accordance with Mazzobre et al., Biopolymer Science: Food and Non Food Applications, Montpellier (France) Sep. 28-30, 1998 Ed. INRA, Paris, 1999 (Les Colloques, no 91). The procedure is based on measuring the amount of glucose released from a buffered lactose solution. The measurement was done using a YSI 2700 glucose analyzer.
For comparison, a mixture containing lactase and a malto-oligosaccharide was prepared, as follows. A 20% aqueous solution of MALTRIN® M180 (M180) was prepared by dissolving 85.5 g (6.4% moisture) of M180 in 313.5 g of deionized water. Enzeco® Fungal Lactase Concentrate, 1.0 g was added to the slurry and stirred for one hour. A 20.0 ml aliquot of the mixture was removed as a control (sample 8A). The remaining sample was poured into two separate freeze drying pans and each was freeze dried according to the temperature profile in Table 3. The temperature profile shown in column 8B of Table 3 represents the temperature profile for only one of the two samples in the freeze drying pans. The freeze dryer was a Virtis Genesis 25XL unit. Final vacuum of the system was 11.8 mtorr. After freeze drying, the material was removed from the pans and evaluated for enzyme activity. The enzyme activity in column 8B of Table 4 represents an average of the enzyme activities for each of the two samples in the freeze drying pans.
A mixture containing lactase and a reduced malto-oligosaccharide was freeze dried as follows. A 20% aqueous solution of reduced malto-oligosaccharide with a carbohydrate profile that matches MALTRIN® M180 (H-M180) was prepared by dissolving 83.4 g (4.1% moisture) of the reduced malto-oligosaccharide in 315.6 g of deionized water. Enzeco® Fungal Lactase Concentrate (1.0 g) was added to the slurry and stirred for one hour. A 20.0 ml aliquot of the mixture was removed as a control (sample 8C). The remaining sample was poured into two separate freeze drying pans and freeze dried according to the temperature profile in Table 3 (samples 8D-1 and 8D-2). The freeze dryer was a Virtis Genesis 25XL unit. Final vacuum of the system was 11.8 mtorr. After freeze drying, the material was removed from the pans and evaluated for enzyme activity as described in the previous example.
For comparison, a mixture containing lactase and trehalose was freeze dried, as follows. A 20% aqueous solution of trehalose was prepared by dissolving 88.9 g (9.1% moisture) of trehalose in 311.0 g of deionized water. Enzeco® Fungal Lactase Concentrate, 1.0 g was added to the slurry and stirred for-one hour. A 20.0 ml aliquot of the mixture was removed as a control (sample 8E). The remaining sample was poured into two separate freeze drying pans and each was freeze dried according to the temperature profile in Table 3. The temperature profile shown in column 8F of Table 3 represents the temperature profile of only one of the two samples in the freeze drying pans. The freeze dryer was a Virtis Genesis 25XL unit. Final vacuum of the system was 11.8 mtorr. After freeze drying, the material was removed from the pans and evaluated for enzyme activity as described in the previous example. The enzyme activity in column 8F of Table 4 represents an average of the enzyme activities for each of the two samples in the freeze drying pans.
The enzymatic activities shown in Table 4 are expressed as the percentage of glucose liberated in the enzyme assay as measured by the amount of glucose liberated divided by the maximum amount of glucose that can be theoretically liberated.

Structure (SMILES): NCCCC[C@H](N)C(=O)O [Control (lysine only), L-lysine]
UV absorption (450 nm) ([1]; time 0 min): 0.044
UV absorption (450 nm) ([1]; time 20 min): 0.043
UV absorption (450 nm) ([1]; time 35 min): 0.044
UV absorption (450 nm) ([1]; time 50 min): 0.046
UV absorption (450 nm) ([1]; time 65 min): 0.047
UV absorption (450 nm) ([1]; time 80 min): 0.048
UV absorption (450 nm) ([1]; time 100 min): 0.050
UV absorption (450 nm) ([1]; time 110 min): 0.050
UV absorption (450 nm) ([1]; time 125 min): 0.051
UV absorption (450 nm) ([1]; time 170 min): 0.055
UV absorption (450 nm) ([1]; time 185 min): 0.057
UV absorption (450 nm) ([1]; time 200 min): 0.057
UV absorption (450 nm) ([1]; time 215 min): 0.059
UV absorption (450 nm) ([1]; time 230 min): 0.059
UV absorption (450 nm) ([1]; time 245 min): 0.058
UV absorption (450 nm) ([1]; time 260 min): 0.061
UV absorption (450 nm) ([1]; time 305 min): 0.061
UV absorption (450 nm) ([1]; time 320 min): 0.063
UV absorption (450 nm) ([1]; time 335 min): 0.063
UV absorption (450 nm) ([1]; time 350 min): 0.063
UV absorption (450 nm) ([1]; time 365 min): 0.064
UV absorption (450 nm) ([1]; time 380 min): 0.065

% activity (freeze dried sample divided by control sample not freeze dried) ([3]; Avg. over assay times): 86.6%
% activity (freeze dried sample divided by control sample not freeze dried) ([3]; lactase assay time 0 h): 0%
% activity (freeze dried sample divided by control sample not freeze dried) ([3]; lactase assay time 0.05 h): 72.4%
% activity (freeze dried sample divided by control sample not freeze dried) ([3]; lactase assay time 0.5 h): 90.0%
% activity (freeze dried sample divided by control sample not freeze dried) ([3]; lactase assay time 1 h): 90.7%
% activity (freeze dried sample divided by control sample not freeze dried) ([3]; lactase assay time 2 h): 93.2%
Structure (SMILES): OC[C@H]1O[C@H](O[C@H]2O[C@H](CO)[C@@H](O)[C@H](O)[C@H]2O)[C@H](O)[C@@H](O)[C@@H]1O [Trehalose, trehalose]
% Yeast Survival [2]: 58.0 (trehalase) %
